What was measured:
THP-1 cells = test: TNF-α production upon compound treatment of THP-1 cells; type: cell-based; details: FIG. 2
mouse macrophages = test: TNF-α production in macrophages from mice with germline mutations or knockouts of TLR and signaling genes; type: cell-based
From the text: Induced TNF-α production was established with the use of macrophages from mice bearing germline genetic defects or knockouts of each of the genes encoding the TLRs or their downstream signaling molecules uniquely available in the laboratories of Professor Bruce Beutler, (University of Texas Southwestern Medical Center, Dallas, Tex.). See, (a) mutagenetix.utsouthwestern.edu.; (b) Arnold et al., (2012) ENU-induced phenovariance in mice: Inferences from 587 mutations. BMC Res. Notes. 5, 577-0500-5-577.

C57BL/6J mice = test: Adjuvant effect with ovalbumin, intramuscular immunization, serum OVA-specific IgG by ELISA; type: in vivo, mouse
Protocol: In FIG. 3, adjuvants were mixed with ovalbumin (OVA, 100 μg) and injected intramuscularly into C57BL/6J mice at the indicated doses. Two immunizations were administered with a booster given at 7 days.
FIG. 4 provides a series of graphs that show anti-olvalbumin titers at 14 days post immunization using adjuvants with ovalbumin (OVA, 100 μg) and injected intramuscularly into C57BL/6J mice. The adjuvants used were Compound 125-03, neoseptin-3 (below), LPS, MPLA (monophosphoryl lipid A from […]

[1] = Overt toxicity when used as an adjuvant at maximum doses; type: in vivo; details: maximum doses capable of administration, compared with LPS
Cyld = biological target: T1, Cyld (Homo sapiens, UniProt Q9NQC7); test: In vitro assay of Cyld activity; type: biochemical
T1 sequence (Q9NQC7 1-956): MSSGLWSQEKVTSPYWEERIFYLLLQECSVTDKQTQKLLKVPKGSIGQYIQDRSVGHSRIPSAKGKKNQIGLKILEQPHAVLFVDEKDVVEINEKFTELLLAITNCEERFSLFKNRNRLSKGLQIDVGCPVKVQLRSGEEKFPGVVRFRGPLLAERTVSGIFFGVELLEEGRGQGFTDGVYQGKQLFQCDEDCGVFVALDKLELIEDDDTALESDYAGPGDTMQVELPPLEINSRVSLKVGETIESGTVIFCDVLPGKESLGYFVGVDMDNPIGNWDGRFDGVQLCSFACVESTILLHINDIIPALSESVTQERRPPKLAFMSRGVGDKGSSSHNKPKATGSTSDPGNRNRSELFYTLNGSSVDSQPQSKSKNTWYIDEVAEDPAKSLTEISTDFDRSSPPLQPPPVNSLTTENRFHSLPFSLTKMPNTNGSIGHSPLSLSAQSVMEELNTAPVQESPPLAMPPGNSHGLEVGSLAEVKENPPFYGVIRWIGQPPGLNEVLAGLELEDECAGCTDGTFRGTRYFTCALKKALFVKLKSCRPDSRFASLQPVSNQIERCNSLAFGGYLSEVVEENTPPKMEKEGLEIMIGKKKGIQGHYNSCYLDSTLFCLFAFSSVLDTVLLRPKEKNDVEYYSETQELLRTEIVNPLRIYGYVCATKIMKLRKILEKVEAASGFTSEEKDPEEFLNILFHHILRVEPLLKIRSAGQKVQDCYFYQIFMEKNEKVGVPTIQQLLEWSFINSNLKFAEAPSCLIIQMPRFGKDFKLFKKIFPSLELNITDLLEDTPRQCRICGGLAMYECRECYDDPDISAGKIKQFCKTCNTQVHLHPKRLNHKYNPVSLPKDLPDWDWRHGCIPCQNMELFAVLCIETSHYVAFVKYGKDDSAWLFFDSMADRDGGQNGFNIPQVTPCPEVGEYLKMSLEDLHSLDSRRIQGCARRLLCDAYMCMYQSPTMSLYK

TLR ligands = test: Mechanistic studies: responses to TLR ligands; type: cell-based; details: TLR ligands including neoseptin-3
TLR4 = biological target: T2, TLR4 (Mus musculus, UniProt Q9JHF9+Q9QUK6); test: TLR4 agonist activity, stimulated TNF-alpha release in mouse macrophages; type: cell-based; details: for TLR4 agonist efficacy: relative to neoseptin-1 or LPS
T2 construct: measuring the stimulated TNF-alpha release in mouse macrophages; endogenous in cells; host or cells: mouse macrophages
T2 sequence (Q9QUK6 26-835): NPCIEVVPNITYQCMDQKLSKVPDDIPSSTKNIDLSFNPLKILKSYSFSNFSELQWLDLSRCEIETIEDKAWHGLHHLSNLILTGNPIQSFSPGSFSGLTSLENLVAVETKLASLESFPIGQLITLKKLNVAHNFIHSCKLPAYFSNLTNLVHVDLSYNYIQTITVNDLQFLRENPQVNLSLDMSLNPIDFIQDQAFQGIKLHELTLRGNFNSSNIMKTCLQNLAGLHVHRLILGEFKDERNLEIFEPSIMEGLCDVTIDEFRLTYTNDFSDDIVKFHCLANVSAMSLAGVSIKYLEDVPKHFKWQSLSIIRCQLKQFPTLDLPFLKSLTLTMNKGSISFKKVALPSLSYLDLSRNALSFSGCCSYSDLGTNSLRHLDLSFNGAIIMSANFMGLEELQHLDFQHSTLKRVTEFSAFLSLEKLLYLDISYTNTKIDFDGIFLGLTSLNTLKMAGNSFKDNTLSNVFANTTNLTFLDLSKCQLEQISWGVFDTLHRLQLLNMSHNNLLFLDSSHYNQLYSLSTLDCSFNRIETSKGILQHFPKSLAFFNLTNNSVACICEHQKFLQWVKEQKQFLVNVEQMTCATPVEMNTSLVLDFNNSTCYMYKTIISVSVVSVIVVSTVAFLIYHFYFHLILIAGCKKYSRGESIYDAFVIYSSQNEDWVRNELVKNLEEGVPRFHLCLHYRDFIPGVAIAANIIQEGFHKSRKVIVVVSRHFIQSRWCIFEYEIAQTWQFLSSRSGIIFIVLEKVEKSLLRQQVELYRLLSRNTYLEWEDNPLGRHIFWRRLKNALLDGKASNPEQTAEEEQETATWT
T2 sequence (Q9JHF9 19-160): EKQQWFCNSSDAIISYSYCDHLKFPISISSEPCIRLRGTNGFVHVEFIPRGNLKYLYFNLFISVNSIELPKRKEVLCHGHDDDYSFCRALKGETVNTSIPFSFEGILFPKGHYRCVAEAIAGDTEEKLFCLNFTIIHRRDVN
From the text: In efforts to improve the TLR4 agonist activity of an initial screening lead, neoseptin-1 (below), measuring the stimulated TNF-alpha release in mouse macrophages, Compound 125-03, used herein as illustrative of the contemplated compounds, emerged as a key compound capable of stimulating the immune response (below). […] [TLRs […] have been lost from the mouse genome, and TLRs 11, 12 and 13 have been lost from the human genome. Beutler, Blood, 113:1399-1407 (2009).]

Compound	release of TNF-alpha from differentiated human THP-1 cells (THP-1 cells)	TLR dependence of stimulated TNF-alpha production (mouse macrophages; macrophages from mice with disabling mutations or knockouts of TLR genes, FIG. 1)	stimulating the release of TNF-alpha in mouse macrophages (mouse macrophages; mouse macrophages)	adjuvant activity, serum OVA-specific IgG (C57BL/6J mice; OVA 100 μg, intramuscular, booster at 7 days, day 35 post-immunization, FIG. 3)	adjuvant activity compared with alum (C57BL/6J mice; anti-ovalbumin titers, 14 days post immunization, concentrations used, FIG. 4)	overt toxicity [1]	effect on Cyld activity (Cyld)	effect on responses to TLR ligands (TLR ligands)	TLR4 agonist efficacy (TLR4)	concentration needed for an antibody response similar to Compound 125-03 (C57BL/6J mice; at fourteen days)	TLR4 agonism (TLR4)
O=C(NCCCc1ccccc1)c1ccc(NC(=O)c2cc3ccccc3o2)c(OCCc2ccc(O)cc2)c1 [Compound 125-03, N-(2-(4-Hydroxyphenethoxy)-4-((3-phenylpropyl)-carbamoyl)phenyl)benzofuran-2-carboxamide]	dose dependent activity	independent of the TLRs including TLR4/MD-2	active	robust, dose-dependent adjuvant activity	more effective than alum	did not display the overt toxicity	directly inhibits Cyld activity	markedly increased responses to TLR ligands			
N[C@@H](Cc1ccccc1)C(=O)Nc1ccc(C(=O)N[C@@H](CCc2ccccc2)C(=O)O)cc1CCc1ccc(O)cc1 [MM-1-88]									significant enhancement in TLR4 agonist efficacy		
CC(C)(C)OC(=O)[C@H](CCc1ccccc1)NC(=O)c1ccc(N)c(CCc2ccc(O)cc2)c1 [neoseptin-3, reference compound]	not active in human cells								nearly matching the efficacy of LPS	about twice the concentration	TLR4-agonist

Reference: patent publication US20170224653A1, “TLR-INDEPENDENT SMALL MOLECULE ADJUVANTS” (The Scripps Research Institute, priority 2014, published 2017)
